{"source": "patent US20240108618A1", "about": "“KRAS G12C INHIBITOR DOSING REGIMENS” (Eli Lilly and Company, priority 2022, published 2024)", "system": "KRAS G12C-mutant advanced solid tumors", "assay": "NCT04956640 Phase 1a monotherapy clinical response (BOR, ORR, DCR, DOR, TTR, % change from baseline, treatment duration)", "type": "in vivo, human", "set-up": "key to Duration of response (months), Median / Best Response: CR: complete response; PR: partial response; uPR: a partial response pending confirmation; SD: stable disease; PD: progressive disease; NE: not estimable", "settings": "for Time to response (months), Interquartile range / Time to response (months), Median / Duration of response (months), Median / % Change from Baseline in Sum of Diameters for all Target Lesions / Best Response / Time (months) of Death / Time (months) of Partial Response - Confirmed / Time (months) of Progressive Disease / Time (months) of Partial Response - Pending Confirmation and Ongoing / Patients with best overall response of CR or PR: Phase 1a; for Duration of response (months), Median: Kaplan-Meier estimate; for % Change from Baseline in Sum of Diameters for all Target Lesions / Best Response / Time (months) of Death / Time (months) of Partial Response - Confirmed / Time (months) of Progressive Disease / Time (months) of Partial Response - Pending Confirmation and Ongoing: individual patients", "method": "The term “BOR” as used herein refers to best overall response based on investigator assessments using RECIST criteria (version 1.1). The minimum duration for BOR of SD is at least 6 weeks after the date of first dose of study drug.\nThe term “DOR” as used herein refers to duration of response, wherein DOR in months is calculated as the event or censoring date minus the response start date plus 1 day divided by 30.4375.\nThe term “ORR” as used herein refers to objective response rate, wherein objective response rate is the proportion of patients with BOR of CR or PR. Objective response rate, unconfirmed, is the proportion of patients with BOR of CR, PR, or uPR.\nThe term “TTR” as used herein refers to time to response, wherein TTR in months is calculated as response start date minus first dose date plus 1 day divided by 30.4375.\nNCT04956640 includes Phase 1a dose escalation (Part A of NCT04956640, see Table 3) followed by a Phase 1b dose expansion (Parts B to E of NCT04956640, see Table 4). […] Phase 1b dose expansion will include 12 cohorts (See Table 4) to further evaluate safety and clinical activity.", "key": {"[1]": {"settings": "starting dose 50 BID, no prior KRAS G12Ci, listed as compound of Formula I"}, "[2]": {"settings": "starting dose 50 BID, prior KRAS G12Ci Y, listed as compound of Formula I"}, "[3]": {"settings": "starting dose 100 BID, no prior KRAS G12Ci, listed as compound of Formula I"}, "[4]": {"settings": "starting dose 100 BID, prior KRAS G12Ci Y"}, "[5]": {"settings": "starting dose 100 BID, prior KRAS G12Ci Y, listed as compound of Formula I"}, "[6]": {"settings": "starting dose 150 BID, no prior KRAS G12Ci, listed as compound of Formula I"}, "[7]": {"settings": "starting dose 150 BID, prior KRAS G12Ci Y, listed as compound of Formula I"}, "[8]": {"settings": "starting dose 200 BID, no prior KRAS G12Ci, listed as compound of Formula I"}, "[9]": {"settings": "starting dose 200 BID, prior KRAS G12Ci Y, listed as compound of Formula I"}, "[10]": {"settings": "starting dose 50 mg BID (N = 14)"}, "[11]": {"settings": "starting dose 100 mg BID (N = 24)"}, "[12]": {"settings": "starting dose 150 mg BID (N = 25)"}, "[13]": {"settings": "starting dose 200 mg BID (N = 12)"}, "[14]": {"settings": "starting dose 50 mg BID, incl. intrapatient dose escalation"}, "[15]": {"settings": "starting dose 100 mg BID, incl. intrapatient dose escalation"}, "[16]": {"settings": "starting dose 150 mg BID, 11 patients with scan data"}, "[17]": {"settings": "starting dose 200 mg BID, 5 patients with scan data"}}, "note": "Several values for one entry are separate records, joined by “and”; a condition that tells them apart may be missing. Identical values can stand only once.", "data": [{"smiles": "C=CC(=O)N1CCN2C(=O)c3cc(F)c(-c4ccc(F)c5sc(N)c(C#N)c45)c(Cl)c3OCC[C@H]2C1", "note": "(single isomer, unassigned) [Formula I]", "values": [{"measurement": "Time to response (months), Interquartile range", "setting": "Total (N = 75)", "result": 1.45, "unit": "months"}, {"measurement": "Time to response (months), Median", "setting": "Total (N = 75)", "result": 1.41, "unit": "months"}, {"measurement": "Duration of response (months), Median", "setting": "Total (N = 75)", "result": 6.24, "unit": "months"}, {"measurement": "% Change from Baseline in Sum of Diameters for all Target Lesions", "setting": "[1]", "result": "9.7% and −0.3% and −6.0% and −8.6% and −9.9% and −10.5% and −13.1% and −17.1% and −26.8% and −31.6% and −45.0%"}, {"measurement": "Best Response", "setting": "[1]", "result": "PD and SD (8×) and PR Confirmed (2×)"}, {"measurement": "Time (months) of Death", "setting": "[1]", "result": "9.8 months and 5.7 months and 1.8 months and 7.4 months and 11.5 months"}, {"measurement": "Time (months) of Partial Response - Confirmed", "setting": "[1]", "result": "1.3 months and 1.2 months"}, {"measurement": "Time (months) of Progressive Disease", "setting": "[1]", "result": "6.7 months and 2.8 months (2×) and 1.2 months and 5.3 months and 2.7 months and 11.1 months"}, {"measurement": "% Change from Baseline in Sum of Diameters for all Target Lesions", "setting": "[2]", "result": "−13.0% and 50.0%"}, {"measurement": "Best Response", "setting": "[2]", "result": "SD and PD"}, {"measurement": "Time (months) of Death", "setting": "[2]", "result": "8.4 months and 1.8 months"}, {"measurement": "Time (months) of Progressive Disease", "setting": "[2]", "result": "5.6 months and 1.3 months and 1.0 months"}, {"measurement": "% Change from Baseline in Sum of Diameters for all Target Lesions", "setting": "[3]", "result": "0.7% and 0.5% and −4.8% and −6.0% and −8.1% and −17.3% and −21.1% and −22.4% and −22.7% and −25.1% and −29.8% and −30.0% and −32.3% (2×) and −35.4% and −51.4% and −54.0% and −54.8% and −57.1% and −84.4%"}, {"measurement": "Best Response", "setting": "[3]", "result": "SD (10×) and PD (2×) and PR Pending (2×) and PR Confirmed (6×)"}, {"measurement": "Time (months) of Death", "setting": "[3]", "result": "7.0 months and 10.3 months and 7.6 months and 1.7 months"}, {"measurement": "Time (months) of Partial Response - Confirmed", "setting": "[3]", "result": "1.3 months and 1.4 months (4×) and 7.7 months"}, {"measurement": "Time (months) of Partial Response - Pending Confirmation and Ongoing", "setting": "[3]", "result": "5.5 months and 1.2 months"}, {"measurement": "Time (months) of Progressive Disease", "setting": "[3]", "result": "2.9 months and 2.7 months and 4.2 months and 6.9 months and 4.1 months and 1.2 months and 5.6 months and 1.3 months and 9.5 months"}, {"measurement": "Time (months) of Death", "setting": "[4]", "result": 4.2, "unit": "months"}, {"measurement": "Time (months) of Partial Response - Confirmed", "setting": "[4]", "result": 3.1, "unit": "months"}, {"measurement": "Time (months) of Progressive Disease", "setting": "[4]", "result": 2.8, "unit": "months"}, {"measurement": "% Change from Baseline in Sum of Diameters for all Target Lesions", "setting": "[5]", "result": "−4.3% and −40.0% and −44.7%"}, {"measurement": "Best Response", "setting": "[5]", "result": "SD (2×) and PR Confirmed"}, {"measurement": "Time (months) of Partial Response - Pending Confirmation and Ongoing", "setting": "starting dose 150 BID, no prior KRAS G12Ci", "result": 1.2, "unit": "months"}, {"measurement": "% Change from Baseline in Sum of Diameters for all Target Lesions", "setting": "[6]", "result": "27.3% and 4.3% and 3.8% and 3.4% and 0.0% and −0.7% and −5.3% and −7.1% and −8.2% and −11.5% and −16.7% and −18.8% and −23.3% and −24.0% and −37.0% and −41.6% and −51.0% and −52.4% and −60.3% and −67.9% and −91.1%"}, {"measurement": "Best Response", "setting": "[6]", "result": "PD and SD (13×) and PR Pending and PR Confirmed (6×)"}, {"measurement": "Time (months) of Death", "setting": "[6]", "result": "5.3 months and 4.9 months"}, {"measurement": "Time (months) of Partial Response - Confirmed", "setting": "[6]", "result": "1.5 months and 4.1 months and 4.2 months and 1.4 months (3×)"}, {"measurement": "Time (months) of Progressive Disease", "setting": "[6]", "result": "9.7 months and 6.7 months and 7.6 months and 4.1 months and 3.3 months and 1.2 months"}, {"measurement": "Time (months) of Death", "setting": "starting dose 150 BID, prior KRAS G12Ci Y", "result": 3.3, "unit": "months"}, {"measurement": "% Change from Baseline in Sum of Diameters for all Target Lesions", "setting": "[7]", "result": "−0.7% and −3.3% and −25.8% and −29.7%"}, {"measurement": "Best Response", "setting": "[7]", "result": "SD (3×) and PD"}, {"measurement": "Time (months) of Progressive Disease", "setting": "[7]", "result": "4.1 months and 1.2 months"}, {"measurement": "Time (months) of Death", "setting": "starting dose 200 BID, no prior KRAS G12Ci", "result": 4.7, "unit": "months"}, {"measurement": "% Change from Baseline in Sum of Diameters for all Target Lesions", "setting": "[8]", "result": "−4.2% and −5.0% and −9.6% and −9.9% and −14.3% and −32.3% and −37.5% and −65.9% and −75.0%"}, {"measurement": "Best Response", "setting": "[8]", "result": "SD (4×) and PD and PR Confirmed (4×)"}, {"measurement": "Time (months) of Partial Response - Confirmed", "setting": "[8]", "result": "2.8 months and 1.4 months and 1.2 months (2×)"}, {"measurement": "Time (months) of Progressive Disease", "setting": "[8]", "result": "2.9 months and 2.5 months and 1.3 months and 8.3 months and 7.4 months"}, {"measurement": "Time (months) of Progressive Disease", "setting": "starting dose 200 BID, prior KRAS G12Ci Y", "result": 1.3, "unit": "months"}, {"measurement": "% Change from Baseline in Sum of Diameters for all Target Lesions", "setting": "[9]", "result": "5.3% and 1.4%"}, {"measurement": "Best Response", "setting": "[9]", "result": "PD and SD"}, {"measurement": "Patients with best overall response of CR or PR", "setting": "[10]", "result": "2 (14.3) N′ (%)"}, {"measurement": "Time to response (months), Interquartile range", "setting": "[10]", "result": 0.13, "unit": "months"}, {"measurement": "Time to response (months), Median", "setting": "[10]", "result": 1.25, "unit": "months"}, {"measurement": "Duration of response (months), Median", "setting": "[10]", "result": "NE"}, {"measurement": "Patients with best overall response of CR or PR", "setting": "[11]", "result": "7 (29.2) N′ (%)"}, {"measurement": "Time to response (months), Interquartile range", "setting": "[11]", "result": 1.68, "unit": "months"}, {"measurement": "Time to response (months), Median", "setting": "[11]", "result": 1.41, "unit": "months"}, {"measurement": "Duration of response (months), Median", "setting": "[11]", "result": 5.45, "unit": "months"}, {"measurement": "Patients with best overall response of CR or PR", "setting": "[12]", "result": "6 (24.0) N′ (%)"}, {"measurement": "Time to response (months), Interquartile range", "setting": "[12]", "result": 2.69, "unit": "months"}, {"measurement": "Time to response (months), Median", "setting": "[12]", "result": 1.46, "unit": "months"}, {"measurement": "Duration of response (months), Median", "setting": "[12]", "result": 7.21, "unit": "months"}, {"measurement": "Patients with best overall response of CR or PR", "setting": "[13]", "result": "4 (33.3) N′ (%)"}, {"measurement": "Time to response (months), Interquartile range", "setting": "[13]", "result": 0.87, "unit": "months"}, {"measurement": "Time to response (months), Median", "setting": "[13]", "result": 1.33, "unit": "months"}, {"measurement": "Duration of response (months), Median", "setting": "[13]", "result": 6.93, "unit": "months"}, {"measurement": "median time to response", "setting": "human, in vivo", "result": 1.4, "unit": "month"}, {"measurement": "Best observed response PR (unconfirmed and confirmed), patients", "setting": "other tumor types", "result": 3}, {"measurement": "Best observed response SD, patients", "setting": "other tumor types", "result": 6}, {"measurement": "PR, patients", "setting": "starting dose 50 mg BID", "result": 0}, {"measurement": "DCR", "setting": "[14]", "result": 75, "unit": "%"}, {"measurement": "ORR", "setting": "[14]", "result": 0, "unit": "%"}, {"measurement": "PD, patients", "setting": "starting dose 100 mg BID", "result": "2 (2 PANC)"}, {"measurement": "DCR", "setting": "[15]", "result": 80, "unit": "%"}, {"measurement": "ORR", "setting": "[15]", "result": 40, "unit": "%"}, {"measurement": "DCR", "setting": "[16]", "result": 90.9, "unit": "%"}, {"measurement": "ORR", "setting": "[16]", "result": 18.2, "unit": "%"}, {"measurement": "DCR", "setting": "[17]", "result": 100, "unit": "%"}, {"measurement": "ORR", "setting": "[17]", "result": 20, "unit": "%"}]}]}
